# From the CheMixHub ionic liquid set
# ± gives the uncertainty stated by the source.
# Test: xn = mol fraction of the nth substance listed
# [1] = 278.15 K, 101 kPa, x1 = 0.02551
# [2] = 283.15 K, 101 kPa, x1 = 0.02551
# [3] = 288.15 K, 101 kPa, x1 = 0.02551
# [4] = 293.15 K, 101 kPa, x1 = 0.02551
# [5] = 298.15 K, 101 kPa, x1 = 0.02551
# [6] = 303.15 K, 101 kPa, x1 = 0.02551
# [7] = 308.15 K, 101 kPa, x1 = 0.02551
# [8] = 313.15 K, 101 kPa, x1 = 0.02551
# [9] = 318.15 K, 101 kPa, x1 = 0.02551
# [10] = 323.15 K, 101 kPa, x1 = 0.02551
# [11] = 328.15 K, 101 kPa, x1 = 0.02551
# [12] = 333.15 K, 101 kPa, x1 = 0.02551
smiles,measurement,setting,value
CC[n+]1ccn(C)c1.O=S(=O)([O-])C(F)(F)F + CC1COC(=O)O1,viscosity,"288.15 K, 101 kPa, x1 = 0.3005",10.78 ± 0.66 mPa·s
same,viscosity,"288.15 K, 101 kPa, x1 = 0.3998",14.62 ± 0.89 mPa·s
same,viscosity,"288.15 K, 101 kPa, x1 = 0.5001",18.7 ± 1.1 mPa·s
same,viscosity,"293.15 K, 101 kPa, x1 = 0.0999",5.28 ± 0.32 mPa·s
same,viscosity,"293.15 K, 101 kPa, x1 = 0.8004",32.5 ± 2 mPa·s
same,viscosity,"298.15 K, 101 kPa, x1 = 0.8004",27.2 ± 1.7 mPa·s
same,viscosity,"298.15 K, 101 kPa, x1 = 0.8998",32.5 ± 2 mPa·s
same,viscosity,"298.15 K, 101 kPa, x1 = 1",40.4 ± 2.5 mPa·s
same,viscosity,"303.15 K, 101 kPa, x1 = 0.0999",3.91 ± 0.24 mPa·s
same,viscosity,"303.15 K, 101 kPa, x1 = 0.3998",8.9 ± 0.54 mPa·s
same,viscosity,"303.15 K, 101 kPa, x1 = 0.6987",18.4 ± 1.1 mPa·s
same,viscosity,"303.15 K, 101 kPa, x1 = 1",34 ± 2.1 mPa·s
same,viscosity,"308.15 K, 101 kPa, x1 = 0.5001",9.9 ± 0.6 mPa·s
same,viscosity,"313.15 K, 101 kPa, x1 = 0.8998",20.4 ± 1.2 mPa·s
same,viscosity,"313.15 K, 101 kPa, x1 = 1",24.9 ± 1.5 mPa·s
same,viscosity,"318.15 K, 101 kPa, x1 = 0.1999",3.52 ± 0.21 mPa·s
same,viscosity,"318.15 K, 101 kPa, x1 = 0.3005",4.44 ± 0.27 mPa·s
same,viscosity,"318.15 K, 101 kPa, x1 = 0.3998",5.86 ± 0.36 mPa·s
same,viscosity,"318.15 K, 101 kPa, x1 = 0.5001",7.69 ± 0.47 mPa·s
same,viscosity,"318.15 K, 101 kPa, x1 = 0.8998",17.7 ± 1.1 mPa·s
same,viscosity,"323.15 K, 101 kPa, x1 = 0.6987",10.72 ± 0.65 mPa·s
same,viscosity,"323.15 K, 101 kPa, x1 = 0.8998",15.47 ± 0.94 mPa·s
same,viscosity,"328.15 K, 101 kPa, x1 = 0.1999",2.81 ± 0.17 mPa·s
same,viscosity,"328.15 K, 101 kPa, x1 = 0.3005",3.48 ± 0.21 mPa·s
same,viscosity,"328.15 K, 101 kPa, x1 = 0.3998",4.58 ± 0.28 mPa·s
same,viscosity,"328.15 K, 101 kPa, x1 = 0.5001",6.16 ± 0.37 mPa·s
same,viscosity,"328.15 K, 101 kPa, x1 = 0.601",7.77 ± 0.47 mPa·s
same,viscosity,"333.15 K, 101 kPa, x1 = 0.3005",3.14 ± 0.19 mPa·s
same,viscosity,"333.15 K, 101 kPa, x1 = 0.6987",8.51 ± 0.52 mPa·s
same,viscosity,"333.15 K, 101 kPa, x1 = 0.8004",10.43 ± 0.63 mPa·s
same,viscosity,"338.15 K, 101 kPa, x1 = 0.601",6.33 ± 0.38 mPa·s
same,viscosity,"338.15 K, 101 kPa, x1 = 0.8004",9.21 ± 0.56 mPa·s
same,viscosity,"343.15 K, 101 kPa, x1 = 0.0999",1.74 ± 0.11 mPa·s
same,viscosity,"343.15 K, 101 kPa, x1 = 0.3998",3.35 ± 0.2 mPa·s
same,viscosity,"353.15 K, 101 kPa, x1 = 0.3005",2.29 ± 0.14 mPa·s
same,viscosity,"353.15 K, 101 kPa, x1 = 0.8998",8.38 ± 0.51 mPa·s
same,viscosity,"353.15 K, 101 kPa, x1 = 1",9.49 ± 0.58 mPa·s
CC[N+](CC)(CC)CC.O=S(=O)([O-])C(F)(F)F + CC#N,electrical conductivity,"293.15 K, 100 kPa, x1 = 0.02",2.56 ± 0.051 S/m
same,electrical conductivity,"293.15 K, 100 kPa, x1 = 0.05",4.03 ± 0.081 S/m
same,electrical conductivity,"298.15 K, 100 kPa, x1 = 0.0997",4.87 ± 0.097 S/m
same,electrical conductivity,"308.15 K, 100 kPa, x1 = 0.1498",4.75 ± 0.095 S/m
same,electrical conductivity,"318.15 K, 100 kPa, x1 = 0.05",4.94 ± 0.099 S/m
same,electrical conductivity,"318.15 K, 100 kPa, x1 = 0.2995",3.89 ± 0.078 S/m
same,electrical conductivity,"323.15 K, 100 kPa, x1 = 0.2995",4.16 ± 0.083 S/m
same,electrical conductivity,"333.15 K, 100 kPa, x1 = 0.2",5.43 ± 0.11 S/m
same,electrical conductivity,"333.15 K, 100 kPa, x1 = 0.25",4.96 ± 0.099 S/m
same,electrical conductivity,"333.15 K, 100 kPa, x1 = 0.2995",4.73 ± 0.095 S/m
same,electrical conductivity,"348.15 K, 100 kPa, x1 = 0.02",3.67 ± 0.073 S/m
same,electrical conductivity,"348.15 K, 100 kPa, x1 = 0.08",6.89 ± 0.14 S/m
same,electrical conductivity,"348.15 K, 100 kPa, x1 = 0.1498",6.97 ± 0.14 S/m
CC[n+]1ccn(C)c1.O=S(=O)([O-])C(F)(F)F + CC#N,viscosity,"298.15 K, 100 kPa, x1 = 0.3948",4.5 ± 1.4 mPa·s
same,viscosity,"298.15 K, 100 kPa, x1 = 0.498",7.4 ± 2.2 mPa·s
same,viscosity,"298.15 K, 100 kPa, x1 = 0.9005",34 ± 10 mPa·s
same,viscosity,"298.15 K, 100 kPa, x1 = 1",46 ± 14 mPa·s
same,viscosity,"303.15 K, 100 kPa, x1 = 0.3948",4.1 ± 1.2 mPa·s
same,viscosity,"303.15 K, 100 kPa, x1 = 0.498",6.6 ± 2 mPa·s
same,viscosity,"303.15 K, 100 kPa, x1 = 0.595",9.5 ± 2.8 mPa·s
same,viscosity,"303.15 K, 100 kPa, x1 = 1",38 ± 11 mPa·s
same,viscosity,"308.15 K, 100 kPa, x1 = 0.3948",3.8 ± 1.1 mPa·s
same,viscosity,"308.15 K, 100 kPa, x1 = 0.498",6 ± 1.8 mPa·s
same,viscosity,"308.15 K, 100 kPa, x1 = 0.595",8.4 ± 2.5 mPa·s
same,viscosity,"313.15 K, 100 kPa, x1 = 0.3948",3.5 ± 1 mPa·s
same,viscosity,"313.15 K, 100 kPa, x1 = 0.498",5.4 ± 1.6 mPa·s
same,viscosity,"313.15 K, 100 kPa, x1 = 0.595",7.5 ± 2.3 mPa·s
same,viscosity,"318.15 K, 100 kPa, x1 = 0.498",4.9 ± 1.5 mPa·s
same,viscosity,"318.15 K, 100 kPa, x1 = 0.595",6.7 ± 2 mPa·s
same,viscosity,"318.15 K, 100 kPa, x1 = 0.6936",9.5 ± 2.8 mPa·s
same,viscosity,"323.15 K, 100 kPa, x1 = 0.498",4.4 ± 1.3 mPa·s
same,viscosity,"323.15 K, 100 kPa, x1 = 0.595",6 ± 1.8 mPa·s
same,viscosity,"323.15 K, 100 kPa, x1 = 0.6936",8.3 ± 2.5 mPa·s
CCc1n(S(=O)(=O)O)cc[n+]1S(=O)(=O)O.O=C([O-])C(F)(F)F + CC#N,electrical conductivity,[1],1.22 ± 0.024 S/m
same,electrical conductivity,[2],1.21 ± 0.024 S/m
same,electrical conductivity,[3],1.2 ± 0.024 S/m
same,electrical conductivity,[4],1.11 ± 0.022 S/m
same,electrical conductivity,"298.15 K, 101 kPa, x1 = 0.0052",0.323 ± 0.006 S/m
same,electrical conductivity,"298.15 K, 101 kPa, x1 = 0.0104",0.517 ± 0.01 S/m
same,electrical conductivity,"298.15 K, 101 kPa, x1 = 0.0155",0.736 ± 0.015 S/m
same,electrical conductivity,"298.15 K, 101 kPa, x1 = 0.0205",0.989 ± 0.02 S/m
same,electrical conductivity,"298.15 K, 101 kPa, x1 = 0.0255",1.11 ± 0.022 S/m
same,electrical conductivity,[5],1.11 ± 0.022 S/m
same,electrical conductivity,[6],0.823 ± 0.016 S/m
same,electrical conductivity,[7],0.824 ± 0.016 S/m
same,electrical conductivity,[8],0.816 ± 0.016 S/m
same,electrical conductivity,[9],0.767 ± 0.015 S/m
same,electrical conductivity,[10],0.755 ± 0.015 S/m
same,electrical conductivity,[11],0.689 ± 0.014 S/m
same,electrical conductivity,[12],0.652 ± 0.013 S/m
C[n+]1ccn(CCCC#N)c1.F[B-](F)(F)F + CC#N,electrical conductivity,"288.15 K, 100 kPa, x1 = 0.5996",0.36 ± 0.14 S/m
same,electrical conductivity,"293.15 K, 100 kPa, x1 = 0.4999",0.69 ± 0.19 S/m
same,electrical conductivity,"293.15 K, 100 kPa, x1 = 0.5996",0.47 ± 0.16 S/m
same,electrical conductivity,"303.15 K, 100 kPa, x1 = 0.4999",1 ± 0.23 S/m
same,electrical conductivity,"303.15 K, 100 kPa, x1 = 0.8885",0.31 ± 0.13 S/m
same,electrical conductivity,"308.15 K, 100 kPa, x1 = 0.7001",0.72 ± 0.2 S/m
same,electrical conductivity,"323.15 K, 100 kPa, x1 = 0.8024",0.87 ± 0.22 S/m
Cc1n(S(=O)(=O)O)cc[n+]1S(=O)(=O)O.O=C([O-])C(F)(F)F + CC#N,electrical conductivity,[1],1.39 ± 0.028 S/m
same,electrical conductivity,[2],1.36 ± 0.027 S/m
same,electrical conductivity,[3],1.3 ± 0.026 S/m
same,electrical conductivity,[4],1.29 ± 0.026 S/m
same,electrical conductivity,"298.15 K, 101 kPa, x1 = 0.0052",0.351 ± 0.007 S/m
same,electrical conductivity,"298.15 K, 101 kPa, x1 = 0.0104",0.528 ± 0.011 S/m
same,electrical conductivity,"298.15 K, 101 kPa, x1 = 0.0155",0.698 ± 0.014 S/m
same,electrical conductivity,"298.15 K, 101 kPa, x1 = 0.0205",1.04 ± 0.021 S/m
same,electrical conductivity,"298.15 K, 101 kPa, x1 = 0.0255",1.26 ± 0.025 S/m
same,electrical conductivity,[5],1.26 ± 0.025 S/m
same,electrical conductivity,[6],1.2 ± 0.024 S/m
same,electrical conductivity,[7],1.15 ± 0.023 S/m
same,electrical conductivity,[8],1.1 ± 0.022 S/m
same,electrical conductivity,[9],1.09 ± 0.022 S/m
same,electrical conductivity,[10],1.08 ± 0.022 S/m
same,electrical conductivity,[11],0.706 ± 0.014 S/m
same,electrical conductivity,[12],0.616 ± 0.012 S/m
